The values that follow come from patent US9522962B2, “Peptides, conjugates and method for increasing immunogenicity of a vaccine” (Academisch Ziekenhuis Leiden h.o.d.n. LUMC, priority 2010, dated 2016).

Entries after “also recorded” stand apart in the source; their conditions may differ. Read-outs that look alike come from different tables or passages of the source. Square brackets hold non-standard residues; d marks the D form. Ends that are not written are not given here. * marks the point of attachment. Biotin = O=C1N[C@H]2[C@H](CS[C@H]2CCCCC(=O)*)N1; code O = not defined here; Ahx = NCCCCCC(=O)O; For = O=C*

The test deals with antibodies in TETAQUIN® (anti-TTd antibodies). It is filed as binding, human. The conditions noted are these: for binding to TETAQUIN (screen of overlapping 22-mer TTx peptides): FIG. 3 (α-chain), FIG. 4 (β-chain).
Where [1] appears, read: Table 2, length variants of peptide β-32, section 'With linker', […] diluted 800x, OD at 415 nm.
Setting [2] is: Table 2, length variants of peptide β-32, section 'Without linker' (sequence listed without Z O), […].
Where [3] appears, read: Table 4, antibody source not given.
Where [4] appears, read: Table 3, further length variants and Lys(formyl) variants, […], neg. control OD 0.30.

In turn, “I K A N S K F I G I Z O (IKANSKFIGI-{Ahx-code O}; reading uncertain) [P27]” had an OD under setting [1] of 0.2 and an OD under setting [2] of 0.2.
As for TSYLSITFLRDFWGNPLRYDTEZO [β55], the “binding to TETAQUIN (screen of overlapping 22-mer TTx peptides)” value (“binding to TETAQUIN” below) is reported as “good binding; also recorded: antibodies present”.
Consider “A N S K F I G I T E L K Z O (ANSKFIGITELK-{Ahx-code O}; reading uncertain) [P19]”, for which the OD is recorded as 0.2 under setting [1] and 0.2 under setting [2].
Turning to “A N S K F I G I Z O (ANSKFIGI-{Ahx-code O}; reading uncertain) [P34]”, the OD is, setting by setting: under setting [1], 0.2; under setting [2], 0.2.
For KFNAYLANKWVFITITNDRLSSZO [β48], the “binding to TETAQUIN” value was “good binding; also recorded: antibodies present”.
“F I G I T E L K K L E S K I N Z Z O (FIGITELKKLESKIN[Ahx][Ahx]K(Biotin))”: under setting [3], the “ELISA OD, effect of longer spacer and C- versus N-terminal biotinylation” value came to 0.64.
For the substance “L K K L E S K I Z O (LKKLESKI-{Ahx-code O}; reading uncertain) [P29]”, the OD is 0.2 under setting [1] and 0.2 under setting [2].
In turn, “F I G I T E L K K L E S J I Z O (FIGITELKKLESK(For)I[Ahx]K; not fully specified (residue 16)) [0925-66, J = Lys(formyl)]” showed an OD under setting [4] of 2.10.
For “F I G I T E L K K L E S K I N K Z Z O (FIGITELKKLESKINK[Ahx][Ahx]K(Biotin))”, the “ELISA OD, effect of longer spacer and C- versus N-terminal biotinylation” value under setting [3] turned out to be 0.65.
Substance “S K F I G I T E Z O (SKFIGITE-{Ahx-code O}; reading uncertain) [P33]” had an OD under setting [1] of 0.2 and an OD under setting [2] of 0.2.
Regarding “Q Y I K A N S K Z O (QYIKANSK-{Ahx-code O}; reading uncertain) [P36]”, the OD reads like this: under setting [1], 0.2; under setting [2], 0.2.
As to “F I G I T E L J K L E S K I Z O [0925-64, J = Lys(formyl)]”, the OD under setting [4] came to 1.70.
The substance “F I G I T E L K K L E S K I N K V F S Z O [0925-53]” gave an OD under setting [4] of 1.90.
With “G I T E L K K L Z O (GITELKKL-{Ahx-code O}; reading uncertain) [P31]”, the OD stood at 0.2 under setting [1] and 0.2 under setting [2].
Consider “F I G I T E L K K L E S K I N K V F Z Z O (FIGITELKKLESKINKVF[Ahx][Ahx]K; not fully specified (residue 21); also: O: biotin modification, exact residue form not clear)”, for which, under setting [3], the “ELISA OD, effect of longer spacer and C- versus N-terminal biotinylation” value was 1.16.
As for “F I G I T E L K K L E S K I N K V Z O (FIGITELKKLESKINKV[Ahx]K; not fully specified (residue 19); also: O: biotin modification, exact residue form not clear) [0925-55]”, the OD under setting [4] was 2.00.
For “I K A N S K F I G I T E L K Z O (IKANSKFIGITELK-{Ahx-code O}; reading uncertain) [P14]”, the OD amounted to 0.2 under setting [1] and 0.2 under setting [2].
On to “J Z Z SKFIGITELKKLESKINKVF (SKFIGITELKKLESKINKVF) [J = Biotin (N-terminal), Z = Ahx]”, for which the “ELISA OD, effect of longer spacer and C- versus N-terminal biotinylation” value under setting [3] was determined as 0.47.
In the case of IGALETTGVVLLLEYIPEITLPZO [β18], the “binding to TETAQUIN” value was “good binding; also recorded: antibodies present”.
With “S K F I G I T E L K K L Z O (SKFIGITELKKL-{Ahx-code O}; reading uncertain) [P18]”, the OD by setting is: under setting [1], 0.45; under setting [2], 0.45.
For “F I G I T E L K K L E S K I Z Z O (FIGITELKKLESKI[Ahx][Ahx]K(Biotin))”, under setting [3], the “ELISA OD, effect of longer spacer and C- versus N-terminal biotinylation” value amounted to 0.79.
Consider “S K F I G I T E L K K L E S Z O (SKFIGITELKKLES-{Ahx-code O}; reading uncertain) [P12]”, for which the OD came out at 0.8 under setting [1] and 0.8 under setting [2].
As to “I K A N S K F I Z O (IKANSKFI-{Ahx-code O}; reading uncertain) [P35]”, the OD is, setting by setting: under setting [1], 0.2; under setting [2], 0.2.
The substance “E L K K L E S K I N K V F S Z O [0925-62]” came in with an OD under setting [4] of 0.35.
In turn, “A N S K F I G I T E L K K L E S K I Z O (ANSKFIGITELKKLESKI-{Ahx-code O}; reading uncertain) [P4]” yielded an OD under setting [1] of 1.05 and an OD under setting [2] of 1.05.
As for “S K F I G I T E L K Z O (SKFIGITELK-{Ahx-code O}; reading uncertain) [P25]”, the OD under setting [1] was 0.2 and the OD under setting [2] amounted to 0.2.
Under setting [4], “F I G I T E L K K L E S K I N K Z O (FIGITELKKLESKINK[Ahx]K(Biotin)) [0925-56]” registered an OD of 1.55.
For the substance “L K K L E S K I N K V F S T Z O (LKKLESKINKVFST[Ahx]K(Biotin)) [0925-63]”, the OD under setting [4] was 0.40.
“FIGITELKKLESKINKVFST Z O [0925-52]” registered an OD under setting [4] of 1.85.
In turn, “F I G I T E L K J L E S K I Z O [0925-65, J = Lys(formyl)]” yielded an OD under setting [4] of 1.50.
Take ELGKKFNIKTRLSYFSMNHDPVZO [α31]: the “binding to TETAQUIN” value is given as “good binding; also recorded: antibodies present”.
Turning to “A N S K F I G I T E L K K L E S Z O (ANSKFIGITELKKLES-{Ahx-code O}; reading uncertain) [P8]”, the OD runs as follows: under setting [1], 0.85; under setting [2], 0.85.
For “F I G I T E L K Z O (FIGITELK-{Ahx-code O}; reading uncertain) [P32]”, the OD runs as follows: under setting [1], 0.2; under setting [2], 0.2.
Regarding “I K A N S K F I G I T E L K K L E S Z O (IKANSKFIGITELKKLES-{Ahx-code O}; reading uncertain) [P5]”, the OD stood at 0.9 under setting [1] and 0.9 under setting [2].
AMDIEYNDMFNNFTVSFWLRVPZO [β41]: the “binding to TETAQUIN” value is on record as “good binding; also recorded: antibodies present”.
Turning to “T E L K K L E S K I N K V F Z O (TELKKLESKINKVF[Ahx]K(Biotin)) [0925-61]”, the OD under setting [4] stood at 0.35.
As to “F I G I T E L K K L Z O (FIGITELKKL-{Ahx-code O}; reading uncertain) [P24]”, the OD runs as follows: under setting [1], 0.35; under setting [2], 0.35.
Turning to “I K A N S K F I G I T E Z O (IKANSKFIGITE-{Ahx-code O}; reading uncertain) [P20]”, the OD is, setting by setting: under setting [1], 0.2; under setting [2], 0.2.
For “A N S K F I G I T E Z O (ANSKFIGITE-{Ahx-code O}; reading uncertain) [P26]”, the OD under setting [1] was 0.2 and the OD under setting [2] came to 0.2.
Turning to “J Z Z F I G I T E L K K L E S K I N K V F”, the “ELISA OD, effect of longer spacer and C- versus N-terminal biotinylation” value under setting [3] was 0.22.
For the substance “Q Y I K A N S K F I G I T E L K K L Z O (QYIKANSKFIGITELKKL-{Ahx-code O}; reading uncertain) [P6]”, the OD reads like this: under setting [1], 0.75; under setting [2], 0.75.
With SLTDLGGELCIKIKNEDLTFIAZO [β1], the “ELISA OD, effect of longer spacer and C- versus N-terminal biotinylation” value came out at 0.12.
“A N S K F I G I T E L K K L Z O (ANSKFIGITELKKL-{Ahx-code O}; reading uncertain) [P13]”: the OD is, setting by setting: under setting [1], 0.6; under setting [2], 0.6.
As to “QYIKANSKFIGITELKKLES Z O (QYIKANSKFIGITELKKLES-{Ahx-code O}; reading uncertain) [P3]”, the OD is, setting by setting: under setting [1], 1.1; under setting [2], 1.1.
For “T E L K K L E S Z O (TELKKLES-{Ahx-code O}; reading uncertain) [P30]”, the OD runs as follows: under setting [1], 0.2; under setting [2], 0.2.
With “Q Y I K A N S K F I G I Z O (QYIKANSKFIGI-{Ahx-code O}; reading uncertain) [P21]”, the OD was 0.2 under setting [1] and 0.2 under setting [2].
“G I T E L K K L E S Z O (GITELKKLES-{Ahx-code O}; reading uncertain) [P23]” came in with an OD under setting [1] of 0.25 and an OD under setting [2] of 0.25.
Consider “F I G I T E L K K L E S K I N K V Z Z O (FIGITELKKLESKINKV[Ahx][Ahx]K(Biotin))”, for which, under setting [3], the “ELISA OD, effect of longer spacer and C- versus N-terminal biotinylation” value stood at 0.68.
In the case of J Z F I G I T E L K K L E S K I N K V F, the “ELISA OD, effect of longer spacer and C- versus N-terminal biotinylation” value under setting [3] was 0.17.
In the case of “T E L K K L E S K I Z O (TELKKLESKI-{Ahx-code O}; reading uncertain) [P22]”, the OD worked out at 0.2 under setting [1] and 0.2 under setting [2].
Under setting [4], “I G I T E L K K L E S K I N Z O (IGITELKKLESKIN[Ahx]K(Biotin)) [0925-58]” registered an OD of 1.45.
On to “IKANSKFIGITELKKLESKI Z O (IKANSKFIGITELKKLESKI-{Ahx-code O}; reading uncertain) [P2]”, for which the OD reads like this: under setting [1], 1.2; under setting [2], 1.2.
Under setting [4], “F I G I T E L K J L E S J I Z O [0925-69, J = Lys(formyl)]” gave an OD of 1.65.
Take “Q Y I K A N S K F I Z O (QYIKANSKFI-{Ahx-code O}; reading uncertain) [P28]”: the OD was found to be 0.2 under setting [1] and 0.2 under setting [2].
As for “I K A N S K F I G I T E L K K L Z O (IKANSKFIGITELKKL-{Ahx-code O}; reading uncertain) [P9]”, the OD by setting is: under setting [1], 0.6; under setting [2], 0.6.
